In assay [1] the test system is E. dunnii clone DUN00001. Briefly: Shoot regeneration from Agrobacterium-inoculated internodal explants, zeatin/NAA optimisation. The assay is classed as cell-based, Eucalyptus dunnii. As for the experimental part: This example teaches a method to optimize the levels of growth regulators for shoot regeneration from the recalcitrant commercial E. dunnii clone DUN00001 or other recalcitrant clones. Internodal explants are prepared as described in Example 1 and are inocultated with Agrobacterium as described in Example 5. Following co-cultivation, transformed shoot clumps are transferred to a shoot regeneration medium. […] To optimize the auxin and cytokinin concentrations in the shoot regeneration media, several combinations of hormones were evaluated as a function of the production of elongated shoots. […] During the initial screening, the zeatin levels were 10, 1, and 0.1 mg/l and the NAA levels were 0.01, 0.1 and 1 mg/l. […] The following data summarize the attempt to optimize the level of zeatin and NAA.

Assay [2] relates to Loblolly pine (Pinus taeda) and hybrid pine (P. taeda×P. rigida) embryogenic cell lines. Briefly: Selection of co-bombarded (als + nptII) pine embryogenic cells on Geneticin or Oust. The assay is classed as cell-based. From the text: This example describes the selection of genetically transformed pine, using a selectable marker encoding ALS on selection media containing a sulfonylurea herbicide, at a level sufficient for selection in model plants. In some experiments, including the one described in the following example, a vector that would express the als gene in the plant tissue was co-bombarded into the cells with a vector that would express the nptII gene in the plant tissue, and the co-bombarded cells were then divided into two groups and placed onto selection medium containing either a sulfonylurea herbicide or Geneticin, so that the frequency with which transformants are selected on Geneticin could be compared with the frequency of selection on herbicide.
Twenty identical replicates from the suspension cells of each of these three pine lines were prepared for gene transfer according to the method described in U.S. Pat. No. 6,518,485. Polyester membrane supports of a defined weight were sterilized by autoclaving and placing in separate sterile Buchner funnels, and approximately 1.5 ml of uniform pine embryogenic suspension at SCV 30 was pipetted onto each support such that the embryogenic tissue was evenly distributed over its surface. […]

For assay [3], the system named is loblolly pine and loblolly x pitch pine hybrid embryogenic lines. Briefly: Growth of pine embryogenic lines on Oust with and without casein hydrolysate (FIG. 9). The settings on record: Oust at 0, 10, 20, 40, and 80 nM, DCR2 with and without casein hydrolysate, twelve weeks. It counts as cell-based, Pinus taeda; loblolly x pitch pine hybrid. The procedure: Six embryogenic lines, two each from three different families (two genetically diverse loblolly pine families and a family of a loblolly x pitch pine hybrid), were evaluated. Uniform suspension cultures from each of the genetically different tissue culture lines were established as described in Example 26. Three identical replicates from the suspension cells of each of these six lines were plated as described in Example 26 on each of ten formulations of DCR2 medium, namely with and without casein hydrolysate, and containing the herbicide Oust at 0, 10, 20, 40, and 80 nM. The plates were sealed and incubated under the same conditions used for pre-experimental initiation, maintenance and selection steps in Example 26. Every three weeks the culture was transferred to fresh medium of the same formulation as previously provided, following weighing under sterile conditions of the tissue on the polyester support.

For assay [4], the system named is E. camaldulensis clone C9. Briefly: Geneticin selection of NPTII transformants, GUS staining of resistant shoot lines. The assay is classed as cell-based, Eucalyptus camaldulensis. To be noted: 8 weeks selection. As for the experimental part: Similar to the methods disclosed in Example 16, E. camaldulensis clone C9 was transformed with GV2260 harboring p35SGUSINT. Following regeneration, the explants were transferred to a selection medium containing geneticin (30, 40, 50, or 60 mg/l geneticin). For geneticin at levels of 30 and 50 mg/l, additional sets of explants were pre-cultured for 1 day. After 8 weeks on selection medium, samples of geneticin-resistant shoot cultures in the early developmental stage were collected and stained with x-gluc for GUS expression.

In assay [5] the test system is E. grandis clone IP1. Described as above. To be noted: 8 weeks. The assay is classed as cell-based, Eucalyptus grandis. As for the experimental part: (Arabidopsis ActinII.:GUSINT, constitutive::NPTII). As described in Example 4, leaf explants from E. grandis clone IP1 were pre-cultured on a pre-culture medium comprising auxin and an Agrobacterium inducer. The explants were transformed with Agrobacterium and co-cultivated for 3 days on a pre-culture medium with auxin enrichment (IAA at 2 mg/l, instead of 0.1 mg/l NAA in standard regeneration medium) and acetosyringone (250 μM). Then the explants were transferred to Euc Regeneration medium supplemented with 400 mg/l timentin for 4 days. The explants were then transferred to selection medium containing geneticin (30 or 40 mg/l geneticin). After 8 weeks on selection medium, samples of geneticin-resistant shoot cultures in the early developmental stage were collected and stained with x-gluc for GUS expression.

Assay [6] has as its system Eucalyptus grandis x urophylla Clone IPB1. Briefly: Geneticin selection of NPTII transformants, GUS staining of resistant calli. It counts as cell-based. The settings on record: about 10 weeks. As for the experimental part:
Before transforming, the explants were pre-cultured for 4 days on a medium having auxin enrichment (IAA at 2 mg/l instead of 0.1 mg/l NAA in standard regeneration medium) and acetosyringone (250 μM). As described in Example 6, the explants were infected with Agrobacterium, co-cultivated on the same medium for 3 days, and then transferred to a regeneration medium supplemented with 400 mg/l timentin for 4 days. Then, the explants were transferred to a selection medium containing geneticin instead of an herbicide selection agent.
The transformants were placed on geneticin selection medium containing geneticin (either 20 or 30 mg/l). Instead of the 3- or 4-week transfer cycles used with an herbicide selection medium, the explants were transferred bi-weekly to fresh geneticin medium. After about 10 weeks of growth on geneticin selection medium, samples of geneticin-resistant calli were collected and stained with x-gluc for GUS expression, as described in Example 7. The following data summarizes GUS expression in geneticin-selected transformants.

Assay [7] has as its system loblolly cell lines. Briefly: asa2 (pWVC33) selection on Geneticin, 5MT or AMT, PCR check (Example 32). The assay is classed as cell-based, Pinus taeda. The settings on record: Geneticin 15 mg/L with casein hydrolysate, 5MT or AMT 30 mg/L with AA4; for PCR confirmed positive (number of lines): of 12, 8, 22 lines PCR tested. The procedure: Two loblolly cell lines were prepared for transformation using the method of Example 28, and co-cultivated with Agrobacterium tumefaciens transformed with pWVC33 (FIG. 7) as described in Example 28. Following eradication of Agrobacterium, each cell line was equally divided onto 6 plates each of 5 different selection media containing either casein hydrolysate and Geneticin at 15 mg/L, or amino acid mixture AA4 and either 5-methyltryptophan (5MT) at 30 or 50 mg/L or […] (AMT) at 30 or 50 mg/L. The results are show in FIG. 12. Putatively transformed sublines grow on Geneticin-containing plates and on both selection treatments where 30 mg/L of the methylated tryptophan selective analog was incorporated.

Take `C/C(=C\CNc1ncnc2[nH]cnc12)CO` [Zeatin, zeatin]: the “shoot induction, comparison of levels in two experiments” value in assay [1] (Table 5 experiments) is “zeatin at 5 mg/l is better than 10 mg/l”. In addition, the “shoot regeneration, initial screening of levels” value in assay [1] (zeatin 10, 1, and 0.1 mg/l with NAA 0.01, 0.1 and 1 mg/l) is “better results at 10 mg/l than at 1 mg/l or 0.1 mg/l”.

On to `COC(=O)c1ccccc1S(=O)(=O)NC(=O)Nc1nc(C)cc(C)n1` [Oust], for which the “putative transgenic sublines that were false positives” value in assay [2] (selection on 50 nM Oust, medium with casein hydrolysate) is “Eighty”. In assay [3], the “success as selective agent (stopping cell growth), FIG. 9” value is listed as “successful as a selective agent at multiple concentrations only in the absence of casein hydrolysate”.

On to `CN[C@@H]1[C@@H](O)[C@@H](O[C@@H]2[C@@H](O)[C@H](O[C@H]3O[C@H]([C@@H](C)O)[C@@H](O)[C@H](O)[C@H]3N)[C@@H](N)C[C@H]2N)OC[C@]1(C)O` [Geneticin], for which the “% GUS^+ Shoots” value in assay [4] (Geneticin 30 mg/l, pre-culture 1 day) came out at 37.9%; in assay [4] (Geneticin 30 mg/l, pre-culture 4 days), 12.8%; in assay [4] (Geneticin 40 mg/l, pre-culture 4 days) it was 11.8%; in assay [4] (Geneticin 50 mg/l, pre-culture 1 day) it was 50%; in assay [4] (Geneticin 50 mg/l, pre-culture 4 days), 19.4%; in assay [4] (Geneticin 60 mg/l, pre-culture 4 days) it was 50%. Further, the “% GUS^+ Shoots” value in assay [5] (explant source rooted plants, Geneticin 30 mg/l) came to 0%; in assay [5] (explant source shoot cluster, Geneticin 30 mg/l), 50%; in assay [5] (explant source shoot cluster, Geneticin 40 mg/l), 57%. For the same molecule, the “No. GUS^+ Shoot Lines” value in assay [4] (Geneticin 30 mg/l, pre-culture 1 day, 29 lines stained) is listed as 11; in assay [4] (Geneticin 30 mg/l, pre-culture 4 days, 39 lines stained) it was 5; in assay [4] (Geneticin 40 mg/l, pre-culture 4 days, 68 lines stained), 8; in assay [4] (Geneticin 50 mg/l, pre-culture 1 day, 12 lines stained), 6; in assay [4] (Geneticin 50 mg/l, pre-culture 4 days, 31 lines stained), 7; in assay [4] (Geneticin 60 mg/l, pre-culture 4 days, 8 lines stained), 4. Besides, the “No. GUS^+ Shoot Lines” value in assay [5] (explant source rooted plants, Geneticin 30 mg/l, 1 line stained) is listed as 0; in assay [5] (explant source shoot cluster, Geneticin 30 mg/l, 16 lines stained), 8; in assay [5] (explant source shoot cluster, Geneticin 40 mg/l, 7 lines stained), 4. Further, in assay [2] (selection on Geneticin 15 mg/L, 12 sublines tested), the “putative transgenic sublines in which stable transformation is verified” value came out at 100%. Further, the “No. GUS^+ Calli” value came out at 0 in assay [6] (Geneticin 20 mg/l, regular shaded light, 5 calli stained); 4 in assay [6] (Geneticin 30 mg/l, dark, 6 calli stained); 13 in assay [6] (Geneticin 30 mg/l, regular shaded light, 17 calli stained). Further, the “False positive Frequency” value in assay [7] is 0.08. Besides, the “PCR confirmed positive (number of lines)” value in assay [7] was determined as 11.

Consider `CC(c1c[nH]c2ccccc12)[C@H](N)C(=O)O` (stereo partly drawn) [AMT30, β-methyltryptophan], for which, in assay [7], the “False positive Frequency” value worked out at 0.09 and the “PCR confirmed positive (number of lines)” value worked out at 20.

For the origin of these results see patent publication US7960614B2, “Plant transformation and selection” (Arborgen, LLC, priority 2003, dated 2011).
